# Patent US20250115565A1, “SOLID CRYSTALLINE FORMS OF HELICASE-PRIMASE INHIBITORS AND PROCESS OF PREPARATION THEREOF” (INNOVATIVE MOLECULES GMBH, priority 2022, published 2025)
# Counter-ions that a name gives are not always drawn.
# Experiments:
# [1] = Relative bioavailability of crystalline and salt forms after single oral dose in male mice (Example 6); assay type: in vivo; settings: male C57bl/6 mice, single oral dose adjusted to 10 mg/kg free IM-250, suspension in 0.5% HPMC in PBS, blood
# Description: The relative bioavailability of crystalline and different salt forms versus suspended IM-250 (derived from a DMSO stock solution) after single dose oral administration in male C57bl/6 mice was examined. Animals (3 per group) had food withdrawn approximately 2 h before administration. The suspension was prepared from a DMSO stock solution, which was diluted 1:20 with 0.5% HPMC in PBS, ultrasonificated and orally administered with a gavage volume of 5 mL/kg. The suspensions of crystalline and different salt forms were prepared directly by adding powder to 0.5% HPMC in PBS, ultrasonificated and orally administered with a gavage volume of 5 mL/kg. Blood samples were taken at 0.5 h, 1 h, 2 h, 5 h, 12 h and 24 h via capillary microsampling and bioanalytics was measured via non-chiral LC-MS. The area-under-curve (AUC0-24 h) and relative bioavailability towards the IM-250 suspension was calculated. The doses for the salts were adjusted to 10 mg/kg free IM-250.
# [2] = Physical accelerated stability by XRPD and DSC after temperature and humidity stress (Example 7); assay type: physicochemical
# Description: XRPD analysis was performed on a Bruker D2 Phase diffractometer using a copper anti-cathode, a mono-crystalline silicone sample holder and a position sensitive detector (LynxExe). Powder sample was loaded on a flat mono-crystalline silicone sample holder in a way to avoid preferred orientation and to sensure planarity of the speciem surface. Instrument operation conditions were as follows: ambient temperature and atmosphere; X-ray generator voltage 30 kV and intensity 10 mA; X-ray source: target Copper; emission radiation Kα1=0.15406 nm, Kα2=0.15444 nm, ratio Kα2/Kα1=0.5, KB filter radiation Nickel; Slit: anti-divergence […], Sollers slit 2.5°; Goniometer: angular sector analyzed from 4° to 45° or 4° to 50° for 20, step size 0.07° for 20; Sample holder rotation speed: 30 rpm; Detection: exposition time per step size of goniometer 1 s.
# DSC analysis was performed on a Q1000 TA Instruments analyzer. The sample to be analyzed was weighed in an aluminium capsule, which was then crimped and put into the calorimeter oven. Instrument operation conditions were as follows: heater ramp 10° C./min; final temperature 230° C. or 240° C.; carrier gas: nitrogen (Messer “qualité Azote 5.0”) with flow rate of 50 mL/min.
# (§1) The chemical and physical accelerated stability of the crystalline material was studied in order to anticipate potential stability issues upon storage or ageing. Crystals were stored for 1 month at 40° C./75% relative humidity (RH) and were also stored for 1 month at 60° C. (and % HR<10% RH). The chemical stability was assessed by HPLC by external standardization versus a freshly prepared (non-stressed) standard solution. For that purpose, six samples (exactly weighted) are stored for each condition: 3 for the 2-weeks stability and 3 for the 4-weeks stability. The physical stability was also assessed by XRPD, DSC analyses by comparing the XRPD and DSC profiles of stressed samples to those of a non-stressed sample. For that purpose, two more samples (one per time point) are stored in each condition (respectively 40° C./75% RH and 60° C.).
# [3] = Chemical accelerated stability by HPLC after temperature and humidity stress (Example 7); assay type: physicochemical; settings: for % of unchanged compound left: HPLC UV 285 nm, 3 assays
# Description: as §1
# [4] = Relative bioavailability and brain exposure of d3-IM-250 HCl salt versus IM-250 HCl salt in male mice (Example 12); assay type: in vivo; settings: mouse, male C57bl/6 mice, single oral dose 10 mg/kg; for Kp at 24 h: brain and whole blood, 24 h post dose, read-out: blood/brain ratio; for AUC(0-t): read-out: AUC0-24; for Cmax: suspension in 0.5% HPMC in PBS; for concentration at 24 h: brain 24 h post dose after PBS perfusion, read-out: brain level @ 24 h
# Description: Animals (3 per group) had food withdrawn approximately 2 h before administration of 10 mg/kg of the test items. The suspensions were prepared directly by adding powder to 0.5% HPMC in PBS, ultrasonificated and orally administered with a gavage volume of 5 mL/kg. Blood samples (20 μL) were taken at 0.5 h, 1 h, 2 h, 5 h, 12 h and 24 h via capillary microsampling, collected from the tail vein into Li-heparin tubes. The samples were frozen on dry ice within 1-2 min of sampling and stored at −20° C. until LC-MS/MS analysis measured via non-chiral LC-MS. After 24 h post dose, animals were sacrificed and perfused with PBS until PBS was transparent and brain was collected and stored at −20° C. until processed for LC-MS analysis to determine the brain/blood exposure. The peak blood concentration (Cmax), elimination half-life (t1/2), area-under-curve (AUC0-24 h) and blood/brain ratio (as an easily obtainable surrogate parameter for nerve tissue exposure) was determined.
# [5] = ICH long term and accelerated stability testing (Example 8); assay type: physicochemical
# Description: The long term and accelerated chemical and physical stability was assessed at a Contract Manufacturing Organization. IM-250 HCl salt samples were primary packaged in double PE bags (50 μm, Semadeni, e.g. cat. #2439 with each tag tied with plastic twist). The secondary package was a HDPE-drum closed with a HDPE screw cap (CurTec). The storage conditions were 25±2° C./60±5% relative humidity and 40±2° C./75±5% relative humidity.
# [6] = at least 4 weeks after storage at 40° C./75% RH and at 60° C.
compound,measurement,setting,value
"Cc1nc(N(C)C(=O)Cc2ccc(-c3cc(F)ccc3F)cc2)sc1[S@@](C)(=N)=O [suspended IM-250 from DMSO, (S)-2-(2′,5′-Difluoro-[1,1′-biphenyl]-4-yl)-N-methyl-N-(4-methyl-5-(S-methylsulfon-imidoyl)thiazol-2-yl)acetamide]",AUC0-24 h,[1],66406 ng·h/mL
"Cc1nc(N(C)C(=O)Cc2ccc(-c3cc(F)ccc3F)cc2)sc1[S@@](C)(=N)=O [IM-250 Free base Form I, (S)-2-(2′,5′-Difluoro-[1,1′-biphenyl]-4-yl)-N-methyl-N-(4-methyl-5-(S-methylsulfon-imidoyl)thiazol-2-yl)acetamide]",DSC Enthalpy transition,"[2]; 40° C./75% RH, 2 wk",-77 J/g
same,DSC melting endotherm Temperature Onset,"[2]; 40° C./75% RH, 2 wk",163 °C
same,DSC melting endotherm Temperature Peak,"[2]; 40° C./75% RH, 2 wk",165 °C
same,DSC Enthalpy transition,"[2]; 40° C./75% RH, 4 wk",-80 J/g
same,DSC melting endotherm Temperature Onset,"[2]; 40° C./75% RH, 4 wk",163 °C
same,DSC melting endotherm Temperature Peak,"[2]; 40° C./75% RH, 4 wk",165 °C
same,DSC Enthalpy transition,"[2]; 60° C., 2 wk",-85 J/g
same,DSC melting endotherm Temperature Onset,"[2]; 60° C., 2 wk",163 °C
same,DSC melting endotherm Temperature Peak,"[2]; 60° C., 2 wk",164 °C
same,DSC Enthalpy transition,"[2]; 60° C., 4 wk",-80 J/g
same,DSC melting endotherm Temperature Onset,"[2]; 60° C., 4 wk",163 °C
same,DSC melting endotherm Temperature Peak,"[2]; 60° C., 4 wk",165 °C
same,physical stability as a bulk powder,[2]; [6],physically stable
same,DSC Enthalpy transition,"[2]; no stress, initial analysis",-83 J/g
same,DSC melting endotherm Temperature Onset,"[2]; no stress, initial analysis",163 °C
same,DSC melting endotherm Temperature Peak,"[2]; no stress, initial analysis",164 °C
same,AUC0-24 h,[1],7683 ng·h/mL
same,% of unchanged compound left,"[3]; 40° C./75% RH, 2 wk",99.4%
same,% of unchanged compound left,"[3]; 40° C./75% RH, 4 wk",100.2%
same,% of unchanged compound left,"[3]; 60° C., 2 wk",99.6%
same,% of unchanged compound left,"[3]; 60° C., 4 wk",101.4%
same,chemical stability as a bulk powder,[3]; [6],chemically stable
Cc1nc(N(C)C(=O)Cc2ccc(-c3cc(F)ccc3F)cc2)sc1[S@@](C)(=N)=O [IM-250 HCl salt],AUC0-24 h,[1],68289 ng·h/mL
same,Kp at 24 h,[4],0.6 ± 0.2
same,half-life,"[4]; whole blood, blood",5.7 h
same,AUC(0-t),"[4]; whole blood, blood",14400 ng·h/mL
same,Cmax,"[4]; whole blood, blood",1210 ng/mL
same,concentration at 24 h,[4],175 ng/g
same,"Assay (HPLC, % w/w, as-is)",[5]; 6 months 25° C./60% RH,97.9%
same,Chiral purity (HPLC area %),[5]; 6 months 25° C./60% RH,99.9%
same,Color and apperance,[5]; 6 months 25° C./60% RH,white to off-
same,Purity (HPLC area %),[5]; 6 months 25° C./60% RH,99.2%
same,Water content (% w/w),[5]; 6 months 25° C./60% RH,0.08%
same,"Assay (HPLC, % w/w, as-is)",[5]; 6 months 40° C./75% RH,98.6%
same,Chiral purity (HPLC area %),[5]; 6 months 40° C./75% RH,99.9%
same,Color and apperance,[5]; 6 months 40° C./75% RH,white to off-
same,Identity by XRPD,[5]; 6 months 40° C./75% RH,conforms to
same,Purity (HPLC area %),[5]; 6 months 40° C./75% RH,99.1%
same,Water content (% w/w),[5]; 6 months 40° C./75% RH,0.10%
same,"Assay (HPLC, % w/w, as-is)",[5]; Initial,98.5%
same,Chiral purity (HPLC area %),[5]; Initial,99.8%
same,Color and apperance,[5]; Initial,white to off-
same,Identity by XRPD,[5]; Initial,conforms to
same,Purity (HPLC area %),[5]; Initial,99.2%
same,Water content (% w/w),[5]; Initial,0.08%
same,physical stability as a bulk powder,[5]; at least 6 month after storage at 25° C. and at 40° C.,physically stable
Cc1nc(N(C)C(=O)Cc2ccc(-c3cc(F)ccc3F)cc2)sc1[S@@](C)(=N)=O [IM-250 Napadisylate],AUC0-24 h,[1],48241 ng·h/mL
[2H]C([2H])([2H])c1nc(N(C)C(=O)Cc2ccc(-c3cc(F)ccc3F)cc2)sc1[S@@](C)(=N)=O [d3-IM-250 HCl salt],Kp at 24 h,[4],0.49 ± 0.1
same,AUC(0-t),"[4]; whole blood, blood",28600 ng·h/mL
same,Cmax,"[4]; whole blood, blood",2570 ng/mL
same,concentration at 24 h,[4],568 ng/g
